Assay results from ChEMBL document CHEMBL6083249, “The journey of p38 MAP kinase inhibitors: From bench to bedside in treating inflammatory diseases” (Eur J Med Chem, 2024).
Values belong to the compound of their own block, whether it stands above or below them.

Tests used:
[1] = biological target: 3',5'-cyclic-AMP phosphodiesterase 4B (Homo sapiens, UniProt Q07343); assay: Inhibition of PDE4B1 (unknown origin)
[2] = biological target: 3',5'-cyclic-AMP phosphodiesterase 4C (Homo sapiens, UniProt Q08493); assay: Inhibition of PDE4C (unknown origin)
[3] = biological target: cGMP-specific 3',5'-cyclic phosphodiesterase (Homo sapiens) (UniProt O76074); assay: Inhibition of human PDE5 at 10 uM relative to control
[4] = biological target: cGMP-inhibited 3',5'-cyclic phosphodiesterase 3A (Homo sapiens) (UniProt Q14432); assay: Inhibition of PDE3A (unknown origin) at 10 uM relative to control
[5] = biological target: Mitogen-activated protein kinase kinase kinase 7 (Homo sapiens, UniProt O43318); assay: Inhibition of TAK1 (unknown origin)
[6] = Oral bioavailability in rat at 2 mg/kg by LC-MS/MS analysis; format: ADME, organism-based; details: in vivo
[7] = biological target: Mitogen-activated protein kinase 3 (Homo sapiens, UniProt P27361); assay: Inhibition of ERK1 (unknown origin)
RAW264.7 = assay: Anti-inflammatory activity in LPS-induced mouse RAW264.7 cells assessed as inhibition of IL-6 production; format: functional, cell-based
[8] = Clearance in Sprague-Dawley rat at 10 mg/kg, iv by HPLC-MS analysis; format: ADME, organism-based; details: in vivo
[9] = Half life in Sprague-Dawley rat at 10 mg/kg, po by LC-MS analysis; format: ADME, organism-based; details: in vivo
[10] = Volume of distribution at steady state in Sprague-Dawley rat at 10 mg/kg, iv measured for 24 hrs by LC-MS/MS analysis; format: ADME, organism-based; details: in vivo, read-out: Vdss
[11] = Tmax in Wistar rat at 10 mg/kg, po by LC-MS/MS analysis; format: ADME, organism-based; details: in vivo
[12] = AUC in Sprague-Dawley rat at 10 mg/kg, po measured for 24 hrs by LC-MS/MS analysis; format: ADME, organism-based; details: in vivo
[13] = Oral bioavailability in Sprague-Dawley rat at 10 mg/kg by LC-MS analysis; format: ADME, organism-based; details: in vivo
[14] = Cmax in Wistar rat at 10 mg/kg, po by LC-MS/MS analysis; format: ADME, organism-based; details: in vivo
THP-1 [15] = assay: Antiinflammatory activity against human THP-1 cells assessed as inhibition of LPS-induced TNF-alpha production; format: functional, cell-based
THP-1 [16] = assay: Anti-inflammatory activity in human THP-1 cells assessed as inhibition of IL-1beta protein expression incubated for 24 hrs by Western blot analysis; format: functional, cell-based; details: THP-1, 24 h
[17] = AUC in rat at 30 mg/kg, po; format: ADME, organism-based; details: in vivo
[18] = Oral bioavailability in ICR mouse at […] by LC-MS/MS analysis; format: ADME, organism-based; details: in vivo, dose 0.25 mg/kg
[19] = biological target: Protein kinase C alpha type (Homo sapiens, UniProt P17252); assay: Inhibition of PKCalpha (unknown origin) at 1 uM in presence of ATP relative to control; details: values are per cent of control
[20] = biological target: Serine/threonine-protein kinase Sgk1 (Homo sapiens) (UniProt O00141); assay: Inhibition of SGK1 (unknown origin) at 1 uM by Z'LYTE kinase assay relative to control; details: values are per cent of control
[21] = biological target: Dual specificity tyrosine-phosphorylation-regulated kinase 1A (Homo sapiens) (UniProt Q13627); assay: Inhibition of DYRK1A (unknown origin) at 1 uM relative to control; details: values are per cent of control
[22] = biological target: Dual specificity tyrosine-phosphorylation-regulated kinase 1A (Homo sapiens) (UniProt Q13627); assay: Inhibition of DYRK1A (unknown origin) at 10 uM relative to control; details: values are per cent of control
[23] = biological target: Casein kinase 2 (Homo sapiens) (UniProt P67870+P68400+P19784+Q8NEV1); assay: Inhibition of CK2 (unknown origin) at 1 uM relative to control; format: protein assay; details: values are per cent of control
Homo sapiens [24] = organism: Homo sapiens; assay: Inhibition of CK1 (unknown origin) at 1 uM relative to control; details: values are per cent of control
Homo sapiens [25] = organism: Homo sapiens; assay: Inhibition of CK1 (unknown origin) at 10 uM relative to control; details: values are per cent of control
[26] = biological target: MAP kinase-activated protein kinase 5 (Homo sapiens) (UniProt Q8IW41); assay: Inhibition of PRAK (unknown origin) at 1 uM relative to control; details: values are per cent of control
[27] = biological target: Ribosomal protein S6 kinase beta-1 (Homo sapiens) (UniProt P23443); assay: Inhibition of S6K1 (unknown origin) at 1 uM relative to control; details: values are per cent of control
[28] = biological target: Ribosomal protein S6 kinase alpha-1 (Homo sapiens) (UniProt Q15418); assay: Inhibition of RSK1 (unknown origin) at 1 uM relative to control; details: values are per cent of control
[29] = biological target: Rho-associated protein kinase 2 (Homo sapiens) (UniProt O75116); assay: Inhibition of ROCK2 (unknown origin) at 1 uM relative to control; details: values are per cent of control
[30] = biological target: Mitogen-activated protein kinase 8 (Homo sapiens) (UniProt P45983); assay: Inhibition of JNK1alpha1 (unknown origin) at 1 uM relative to control; details: values are per cent of control
Homo sapiens [31] = organism: Homo sapiens; assay: Inhibition of PKA (unknown origin) at 1 uM relative to control; details: values are per cent of control
[32] = biological target: Dual specificity mitogen-activated protein kinase kinase 1 (Homo sapiens) (UniProt Q02750); assay: Inhibition of MKK1 (unknown origin) at 1 uM relative to control; details: values are per cent of control
[33] = biological target: Mitogen-activated protein kinase 1 (Homo sapiens) (UniProt P28482); assay: Inhibition of ERK2 (unknown origin) at 1 uM relative to control; details: values are per cent of control

3',5'-cyclic-AMP phosphodiesterase 4B, sequence (Q07343 whole entry): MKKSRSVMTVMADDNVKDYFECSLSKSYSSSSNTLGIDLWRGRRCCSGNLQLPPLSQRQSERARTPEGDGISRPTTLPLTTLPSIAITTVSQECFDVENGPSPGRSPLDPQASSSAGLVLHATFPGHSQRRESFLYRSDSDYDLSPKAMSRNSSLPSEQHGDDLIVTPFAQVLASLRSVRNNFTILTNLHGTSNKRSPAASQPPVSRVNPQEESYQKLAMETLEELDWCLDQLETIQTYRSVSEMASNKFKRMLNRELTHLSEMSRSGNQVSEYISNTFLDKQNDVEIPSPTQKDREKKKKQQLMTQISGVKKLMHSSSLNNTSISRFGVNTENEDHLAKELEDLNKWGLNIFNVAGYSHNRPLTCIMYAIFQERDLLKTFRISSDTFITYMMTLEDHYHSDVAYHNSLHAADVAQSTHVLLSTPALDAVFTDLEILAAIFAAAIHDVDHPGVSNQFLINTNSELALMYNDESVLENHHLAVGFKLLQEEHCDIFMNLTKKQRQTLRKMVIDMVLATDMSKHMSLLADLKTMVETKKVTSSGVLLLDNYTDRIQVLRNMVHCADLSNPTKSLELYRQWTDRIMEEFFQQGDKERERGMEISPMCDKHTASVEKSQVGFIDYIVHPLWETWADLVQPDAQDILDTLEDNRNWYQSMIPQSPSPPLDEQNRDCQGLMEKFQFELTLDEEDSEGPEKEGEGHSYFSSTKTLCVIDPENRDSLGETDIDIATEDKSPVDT
Serine/threonine-protein kinase Sgk1 (Homo sapiens), sequence (O00141 whole entry): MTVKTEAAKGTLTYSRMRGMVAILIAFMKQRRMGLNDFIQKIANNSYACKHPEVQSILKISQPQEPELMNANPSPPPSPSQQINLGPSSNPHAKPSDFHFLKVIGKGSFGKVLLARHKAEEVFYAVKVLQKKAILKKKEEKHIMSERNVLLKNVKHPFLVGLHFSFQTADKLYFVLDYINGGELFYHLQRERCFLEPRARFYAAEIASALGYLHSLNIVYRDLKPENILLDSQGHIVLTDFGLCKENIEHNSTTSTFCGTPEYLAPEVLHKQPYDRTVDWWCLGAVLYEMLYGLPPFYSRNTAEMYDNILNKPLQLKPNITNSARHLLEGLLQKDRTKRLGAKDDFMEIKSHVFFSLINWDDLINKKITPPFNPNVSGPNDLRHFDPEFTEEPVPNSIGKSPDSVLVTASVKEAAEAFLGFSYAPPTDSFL
Mitogen-activated protein kinase kinase kinase 7, sequence (O43318 whole entry): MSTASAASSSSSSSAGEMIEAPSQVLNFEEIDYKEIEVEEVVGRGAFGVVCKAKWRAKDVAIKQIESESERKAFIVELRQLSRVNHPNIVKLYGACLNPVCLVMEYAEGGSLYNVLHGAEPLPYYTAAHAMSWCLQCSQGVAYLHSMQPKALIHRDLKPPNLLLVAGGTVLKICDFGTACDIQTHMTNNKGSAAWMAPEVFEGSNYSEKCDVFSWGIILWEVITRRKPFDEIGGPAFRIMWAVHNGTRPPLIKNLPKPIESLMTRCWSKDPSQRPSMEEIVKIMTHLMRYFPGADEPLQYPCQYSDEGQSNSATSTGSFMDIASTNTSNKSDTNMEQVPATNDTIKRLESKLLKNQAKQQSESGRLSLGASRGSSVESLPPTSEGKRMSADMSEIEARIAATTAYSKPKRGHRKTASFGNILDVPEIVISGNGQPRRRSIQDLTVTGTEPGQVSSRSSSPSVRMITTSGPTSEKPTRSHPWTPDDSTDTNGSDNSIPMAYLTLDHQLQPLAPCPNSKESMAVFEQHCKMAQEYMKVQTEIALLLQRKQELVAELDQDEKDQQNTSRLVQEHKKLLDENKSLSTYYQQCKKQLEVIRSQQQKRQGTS
MAP kinase-activated protein kinase 5 (Homo sapiens), sequence (Q8IW41 whole entry): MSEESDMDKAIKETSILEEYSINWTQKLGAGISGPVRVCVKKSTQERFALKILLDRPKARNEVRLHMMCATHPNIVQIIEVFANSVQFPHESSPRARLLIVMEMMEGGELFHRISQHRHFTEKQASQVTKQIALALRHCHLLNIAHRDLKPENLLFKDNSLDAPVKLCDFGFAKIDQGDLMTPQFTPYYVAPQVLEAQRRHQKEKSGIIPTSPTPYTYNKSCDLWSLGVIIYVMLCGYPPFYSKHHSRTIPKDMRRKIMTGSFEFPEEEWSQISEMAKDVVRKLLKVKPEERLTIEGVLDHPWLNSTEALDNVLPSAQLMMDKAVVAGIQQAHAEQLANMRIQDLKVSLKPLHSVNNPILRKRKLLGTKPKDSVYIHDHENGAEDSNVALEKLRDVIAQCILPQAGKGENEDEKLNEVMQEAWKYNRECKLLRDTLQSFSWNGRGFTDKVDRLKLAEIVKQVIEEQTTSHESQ
Ribosomal protein S6 kinase beta-1 (Homo sapiens), sequence (P23443 whole entry, looked up): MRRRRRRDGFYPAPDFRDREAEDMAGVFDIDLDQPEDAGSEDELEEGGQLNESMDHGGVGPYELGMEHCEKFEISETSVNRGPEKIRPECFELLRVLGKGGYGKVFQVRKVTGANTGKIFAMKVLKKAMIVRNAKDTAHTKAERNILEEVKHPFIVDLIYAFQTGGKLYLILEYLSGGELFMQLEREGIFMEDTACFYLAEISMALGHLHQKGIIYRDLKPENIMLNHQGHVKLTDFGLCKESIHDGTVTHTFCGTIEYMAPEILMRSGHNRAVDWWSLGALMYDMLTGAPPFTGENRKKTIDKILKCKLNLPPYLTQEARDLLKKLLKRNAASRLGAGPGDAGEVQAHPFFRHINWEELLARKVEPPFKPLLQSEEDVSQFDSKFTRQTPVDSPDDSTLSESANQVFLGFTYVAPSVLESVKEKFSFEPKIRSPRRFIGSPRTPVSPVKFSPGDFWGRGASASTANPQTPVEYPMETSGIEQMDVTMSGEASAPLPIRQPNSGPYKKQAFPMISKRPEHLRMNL
Rho-associated protein kinase 2 (Homo sapiens), sequence (O75116 whole entry, looked up): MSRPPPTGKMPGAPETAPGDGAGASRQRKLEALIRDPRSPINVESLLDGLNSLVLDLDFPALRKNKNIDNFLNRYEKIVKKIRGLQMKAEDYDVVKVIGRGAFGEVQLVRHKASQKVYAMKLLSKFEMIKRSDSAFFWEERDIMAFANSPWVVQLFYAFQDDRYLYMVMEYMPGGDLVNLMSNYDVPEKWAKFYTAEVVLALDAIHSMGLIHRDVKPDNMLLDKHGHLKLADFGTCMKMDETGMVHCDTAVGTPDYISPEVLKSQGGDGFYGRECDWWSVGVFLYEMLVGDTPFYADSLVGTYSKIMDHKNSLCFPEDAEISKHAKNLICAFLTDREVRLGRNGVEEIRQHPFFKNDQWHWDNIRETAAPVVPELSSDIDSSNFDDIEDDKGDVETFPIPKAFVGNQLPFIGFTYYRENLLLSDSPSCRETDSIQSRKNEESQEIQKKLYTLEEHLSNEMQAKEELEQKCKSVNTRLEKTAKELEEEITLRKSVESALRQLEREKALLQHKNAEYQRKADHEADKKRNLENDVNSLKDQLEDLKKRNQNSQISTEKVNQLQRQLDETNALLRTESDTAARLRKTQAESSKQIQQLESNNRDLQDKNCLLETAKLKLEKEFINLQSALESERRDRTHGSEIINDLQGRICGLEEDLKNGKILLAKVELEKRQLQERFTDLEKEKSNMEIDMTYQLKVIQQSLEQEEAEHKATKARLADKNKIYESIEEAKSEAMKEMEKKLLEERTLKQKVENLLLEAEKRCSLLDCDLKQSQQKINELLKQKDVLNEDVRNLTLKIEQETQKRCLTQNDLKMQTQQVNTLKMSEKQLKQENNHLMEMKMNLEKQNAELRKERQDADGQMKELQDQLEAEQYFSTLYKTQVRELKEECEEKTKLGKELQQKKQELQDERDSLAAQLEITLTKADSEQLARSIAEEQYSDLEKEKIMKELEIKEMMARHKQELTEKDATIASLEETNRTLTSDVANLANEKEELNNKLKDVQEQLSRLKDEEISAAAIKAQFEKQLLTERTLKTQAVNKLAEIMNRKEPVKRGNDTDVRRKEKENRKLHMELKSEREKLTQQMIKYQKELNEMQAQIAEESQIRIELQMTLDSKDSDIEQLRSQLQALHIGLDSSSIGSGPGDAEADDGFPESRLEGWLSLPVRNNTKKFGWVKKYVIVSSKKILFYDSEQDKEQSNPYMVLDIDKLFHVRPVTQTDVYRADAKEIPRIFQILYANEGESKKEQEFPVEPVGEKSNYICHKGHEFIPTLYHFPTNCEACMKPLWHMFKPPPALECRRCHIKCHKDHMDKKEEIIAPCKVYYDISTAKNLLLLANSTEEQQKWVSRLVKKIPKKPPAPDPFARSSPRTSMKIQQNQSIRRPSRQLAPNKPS

Structure (SMILES): Cn1c([S+](C)[O-])nc(-c2ccc(F)cc2)c1-c1ccnc(N)c1 (centres undefined)
- IC50 [1]: 3500 nM
- IC50 [2]: > 10000 nM
- inhibition [3]: 30%
- inhibition [4]: 30%

Structure (SMILES): CCc1nc(-c2cccc(C)c2)c(-c2ccnc(NC(=O)c3ccccc3)c2)s1 [TAK-715]
- IC50 [5]: > 10000 nM
- bioavailability [6]: 21.1%
- IC50 [7]: > 10000 nM

Structure (SMILES): Cn1c(=O)c(Oc2ccc(F)cc2F)cc2cnc(NC(CCO)CCO)nc21 [PAMAPIMOD]
- EC50 (RAW264.7): 50 nM
- clearance [8]: 21 mL/min/kg
- half-life [9]: 4.04 h
- Vd [10]: 3.56 L/kg
- Tmax [11]: 0.5 h
- AUC [12]: 3.13 µg/h/mL
- bioavailability [13]: 80.1%
- Cmax [14]: 1340 ng/mL
- IC50 (THP-1 [15]): 300 nM
- IC50 (THP-1 [16]): 100 nM

Results, then the compound that gave them:

- AUC [17]: 220 ng·h/mL
- bioavailability [18]: 51%
Structure (SMILES): Cc1c(F)cc(C(=O)NC2CC2)cc1-c1ccc(C(=O)NCC(C)(C)C)cn1 [LOSMAPIMOD]

- residual activity [19]: 80%
- residual activity [20]: 94%
- residual activity [21]: 82%
- residual activity [22]: 79%
- residual activity [23]: 85%
- residual activity (Homo sapiens [24]): 87%
- residual activity (Homo sapiens [25]): 84%
- residual activity [26]: 71%
- residual activity [27]: 119%
- residual activity [28]: 59%
- residual activity [29]: 80%
- residual activity [30]: 70%
- residual activity (Homo sapiens [31]): 88%
- residual activity [32]: 71%
- residual activity [33]: 79%
Structure (SMILES): Cc1ccc(-n2nc(C(C)(C)C)cc2NC(=O)Nc2ccc(OCCN3CCOCC3)c3ccccc23)cc1
